Measured values reported in patent US11464768B2, “Pimavanserin alone or in combination for use in the treatment of Alzheimer's disease psychosis” (ACADIA Pharmaceuticals Inc., priority 2016, dated 2022).

Key:
[1] = system: ADP patients; experiment: Same twelve-week study: safety assessment (adverse events); format: in vivo, human; settings: for tolerability and safety profile: 34 mg once daily for twelve weeks, 181 patients in safety assessment
Protocol: Each patient participated in a 3-week screening period, a 12-week double-blind treatment period, and a 4-week follow-up period. The maximum duration of the study for each patient was approximately 19 weeks. Pimavanserin was administered in tablet form, once daily by mouth in 34 mg doses (2 tablets of 17 mg pimavanserin), equivalent to 40 mg pimavanserin tartrate. (2 tablets of 20 mg pimavanserin tartrate) Placebo was administered with visibly matching tablets, using the same route and regimen. The safety of subjects was assessed by monitoring adverse events, physical examinations, vital signs, clinical laboratory tests (hematology, clinical chemistry, and urinalysis), and electrocardiograms. Furthermore cognitive status was assessed via MMSE.
The results of the study were obtained from a majority of the 181 patients, some of the patients were excluded from the endpoint results but all 181 patients were included in the safety assessment.

[2] = system: ADP patients; experiment: Same twelve-week study: NPI-NH Agitation/Aggression subscale (Domain C); format: in vivo, human; settings: pimavanserin arm; placebo arm 0.47
Description: To determine the score for a given domain, the caregivers rate frequency and severity of the resident's behavior for that particular domain. The frequency is rated on a 0-4 point scale. For example, the frequency is rated as a) 0 for not present; b) 1 for occasional; c) 2 for often; d) 3 for frequent; and e) 4 for very frequent occurrence of the behavior in question. The severity is rated on a 1-3 point scale. For example, the severity is rated as a) 1 for mild; b) 2 for moderate; and 3 for severe. The score of each domain is determined by multiplying the frequency rating score by the severity rating score. The score of each domain ranges from 0 to 12.
A twelve-week, randomized, double-blind, placebo-controlled, single-center study was conducted in ADP patients in nursing homes. […]
Nursing home staff administered the study drug to the patient each morning as a single oral dose (2×17 mg tablets) beginning within 24 hours of completion of all baseline assessments (Day 1). […] Behavioral symptoms were assessed using the NPI-NH Total and Individual Behavioral Domain scores and the Cohen-Mansfield Agitation Inventory—Short Form (CMAI-SF). […] In addition, evaluation of activities of daily living (ADL) was evaluated using the Alzheimer's Disease Cooperative Study-ADL instrument (ADCS-ADL). […]

CC(C)COc1ccc(CNC(=O)N(Cc2ccc(F)cc2)C2CCN(C)CC2)cc1 [Pimavanserin, N-(1-methylpiperidin-4-yl)-N-(4-fluorophenylmethyl)-N′-(4-(2-methylpropyloxy)phenylmethyl)carbamide]
tolerability and safety profile [1]: safe and well tolerated
tolerability and safety profile ([1]; listed as pimavanserin): well tolerated
effect on cognitive function or motor functions ([1]; pimavanserin arm (same in placebo arm)): no negative effect on cognitive function or motor functions
adverse event: falls ([1]; pimavanserin arm, placebo arm 23.1%): 23.3%
adverse event: urinary tract infection ([1]; pimavanserin arm, placebo arm 27.5%): 22.2%
improvement on the Agitation/Aggression subscale (Domain C) of the NPI-NH [2]: 1.13 points
